This is an account of results in patent publication US20260365671A1, “HETEROCYCLIC COMPOUND” (Takeda Pharmaceutical Company Limited, priority 2022, published 2026).

One test concerns the target T1, NLRP3 inflammasome (Homo sapiens, UniProt Q96P20).
T1 construct: IL-1beta HTRF
Briefly: IL-1β TR-FRET assay (THP-1 cells differentiated to macrophages with IFN-γ, LPS primed, ATP activated; HTRF). In kind it is cell-based. The note with it: THP-1 macrophages, 50 ng/mL LPS priming, compound 30 min, 20 mM ATP 2 hours. The procedure: (§1) The biological activity of Compound (I) with respect to NLRP3 was determined using the following in vitro methods.
IL-1β TR-FRET Assay (Reported as IC50)
Monocytic THP-1 cells (ATCC: TIB-202) were maintained in accordance with the provider's instructions in RPMI media (Life Technologies, Cat #A10491-01); RPMI was supplemented with 10% heat inactivated fetal bovine serum (Corning, Cat #35-010-CV). The cells were differentiated into macrophages by the addition of 25 ng/mL IFN-γ (PeproTech, Cat #AF300-02-100UG) for 24 hours at 37 °C/5% CO2. Media was exchanged with fresh media with no FBS, and the cells were treated with 50 ng/mL LPS (priming step) (LPS-EK: Invivogen, Cat #tlrl-peklps). The cells were plated at 240,000 cells per well in 384-well flat-bottom cell culture plates (FALCON, Cat #353962) and were incubated for 24 hours at 37 °C/5% CO2. Compounds were serially diluted (half log dilutions) with DMSO and were finally diluted with Media with no FBS. The compounds were added to the cells in 384-well plates (added in 1:3) and then the plates were incubated for 30 minutes at 37 °C/5% CO2. The NLRP3 inflammasome was activated with the addition of 20 mM ATP (Sigma Cat #A3377-25G) and the cells were incubated for 2 hours at 37 °C/5% CO2. At the end of the incubation period, 30 μL supernatant was transferred to another 384-well plate and mixed on a plate shaker for 1 minutes. The supernatant was mixed with HTRF Antibody (Human IL1 beta kit, Cisbio, 62HIL1BPEH) in assay plates (Greiner Bio-One, Cat #784075) and the assay plates were incubated in shading box at room temperature for 16-24 hours. HTRF signal was measured by EnVision (Perkinelmer) in accordance with the manufacturer's instructions.
(§2) The IC50 values were calculated from a plot of percentage of inhibition versus the inhibitor concentration by a logistics curve fit according to: Y=[Bottom+(Top−Bottom)]/(1+10^[(Log IC50−X)·Hill Slope], where Y is the % inhibition at the inhibitor concentration, X, “Bottom” is the lowest inhibition value, i.e., 0%, “Top” is the maximum inhibition value, i.e., 100%, and the “Hill Slope” describes the slope of the sigmoidal curve between the “Bottom” and “Top” values. The curve fitting was conducted with XLfit (ver. 5.5.0.5, ID Business Solutions Limited) or internally developed software.
(§3) Table 2 lists in vitro biological assay data (IL-1β and TNF-α) for the compounds shown in the examples. These assays are described in the section entitled Biological Activity, above.
A general note: TR-FRET usually uses a lanthanide donor and a delayed reading to cut background.

For the next test, the system named is NF-κB pathway. Briefly: TNF-α assay (THP-1 cells differentiated to macrophages with IFN-γ, NF-κB pathway activated with LPS; ELISA). It is filed as cell-based, Human. The note with it: Homo sapiens, THP-1, THP-1 macrophages, compound 30 min, 50 ng/mL LPS 3 hours. How it is done: as §1
TNF-α Assay (Reported as IC50)
Monocytic THP-1 cells (ATCC: TIB-202) were maintained in accordance with the provider's instructions in RPMI media (Life Technologies, Cat #A10491-01); RPMI was supplemented with 10% heat inactivated fetal bovine serum (Hyclone Cat #SH30396.03). The cells were differentiated into macrophages by the addition of 25 ng/mL IFN-γ for 24 hours at 37 °C/5% CO2. Media was exchanged with fresh media with no FBS. The cells were plated at 40,000 cells per well in 384-well flat-bottom cell culture plates (Costar 3764) containing compounds (added in 1:1000) in a 1:3.16 serial dilution series in DMSO and were incubated for 30 minutes at 37 °C/5% CO2. The NF-κB pathway was activated with the addition of 50 ng/mL LPS and the cells were incubated for 3 hours at 37 °C/5% CO2. At the end of the incubation period, supernatant ([…]) was removed, and […] were monitored using an ELISA (Human TNF-α ELISA, R&D systems, Cat #DY210) according to the manufacturer's instructions.
as §2, §3
In general terms: In an ELISA, binding on a coated surface is turned into a signal by an enzyme label.

In general, IC50 refers to the concentration that gives 50% inhibition. The low end stands for greater potency, the high end for weaker potency.

T1 sequence (Q96P20 whole entry): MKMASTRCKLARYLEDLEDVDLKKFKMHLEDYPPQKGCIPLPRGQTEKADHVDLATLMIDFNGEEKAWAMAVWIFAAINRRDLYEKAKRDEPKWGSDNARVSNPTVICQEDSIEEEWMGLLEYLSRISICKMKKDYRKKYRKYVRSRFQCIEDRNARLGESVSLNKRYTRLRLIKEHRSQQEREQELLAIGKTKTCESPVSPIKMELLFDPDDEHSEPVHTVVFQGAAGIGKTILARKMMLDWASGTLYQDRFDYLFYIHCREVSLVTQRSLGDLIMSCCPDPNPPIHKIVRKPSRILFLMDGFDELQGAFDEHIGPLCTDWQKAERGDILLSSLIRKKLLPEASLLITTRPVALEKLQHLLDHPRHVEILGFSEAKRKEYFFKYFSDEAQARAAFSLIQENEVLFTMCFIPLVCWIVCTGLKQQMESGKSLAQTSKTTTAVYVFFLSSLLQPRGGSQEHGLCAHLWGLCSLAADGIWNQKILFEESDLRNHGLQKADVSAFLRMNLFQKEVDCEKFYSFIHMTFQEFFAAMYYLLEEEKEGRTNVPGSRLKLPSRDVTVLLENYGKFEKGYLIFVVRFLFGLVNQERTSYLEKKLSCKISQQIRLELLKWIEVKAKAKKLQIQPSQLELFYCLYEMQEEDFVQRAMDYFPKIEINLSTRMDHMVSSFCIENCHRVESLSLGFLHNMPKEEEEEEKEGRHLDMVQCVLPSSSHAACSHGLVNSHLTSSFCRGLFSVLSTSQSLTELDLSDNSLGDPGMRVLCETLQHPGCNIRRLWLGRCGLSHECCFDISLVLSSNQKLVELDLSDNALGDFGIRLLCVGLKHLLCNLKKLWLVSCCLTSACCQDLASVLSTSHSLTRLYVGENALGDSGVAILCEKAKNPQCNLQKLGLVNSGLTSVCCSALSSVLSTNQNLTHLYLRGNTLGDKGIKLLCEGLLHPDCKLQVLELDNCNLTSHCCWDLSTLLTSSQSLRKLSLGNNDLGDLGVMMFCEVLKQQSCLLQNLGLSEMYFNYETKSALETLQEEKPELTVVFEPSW

Regarding `CCN1C[C@H](Nc2nc3nn(-c4c(C)cc(C)cc4O)cc3s2)[C@@H](F)C1` (racemic) [Example 21, racemic mixture of 2-(5-{[(3R,4R)-1-ethyl-4-fluoropyrrolidin-3-yl]amino}-2H-pyrazolo[3,4-d][1,3]thiazol-2-yl)-3,5-dimethylphenol and 2-(5-{[(3S,4S)-1-ethyl-4-fluoropyrrolidin-3-yl]amino}-2H-pyrazolo[3,4-d][1,3]thiazol-2-yl)-3,5-dimethylphenol], the IC50 is 160 nM on NLRP3 inflammasome and greater than 30 µM in the test with NF-κB pathway.
As for `Cc1cc(C)c(-n2cc3sc(N[C@H]4CN(C)C[C@H]4F)nc3n2)c(O)c1` (racemic) [Example 22, racemic mixture of 2-(5-{[(3R,4S)-4-fluoro-1-methylpyrrolidin-3-yl]amino}-2H-1-pyrazolo[3,4-d][1,3]thiazol-2-yl)-3,5-dimethyl-phenol and 2-(5-{[(3S,4R)-4-fluoro-methylpyrrolidin-3-yl]amino}-2H-pyrazolo[3,4-d][1,3]thiazol-2-yl)-3,5-dimethylphenol], the figures for the IC50 against NLRP3 inflammasome and in the test on NF-κB pathway were 1100 nM and greater than 30 µM, respectively.
With `CCN1C[C@@H](F)[C@@H](Nc2nc3nn(-c4c(C)cc(C)cc4O)cc3s2)C1` (racemic) [Example 23, racemic mixture of 2-(5-{[(3R,4S)-1-ethyl-4-fluoropyrrolidin-3-yl]amino}-2H-pyrazolo[3,4-d][1,3]thiazol-2-yl)-3,5-dimethylphenol and 2-(5-{[(3S,4R)-1-ethyl-4-fluoropyrrolidin-3-yl]amino}-2H-pyrazolo[3,4-d][1,3]thiazol-2-yl)-3,5-dimethylphenol], the IC50 is 210 nM against NLRP3 inflammasome and greater than 30 µM in the test on NF-κB pathway.
The matching figures for `CC(=O)N1C[C@H](Nc2nc3nn(-c4c(C)cc(C)cc4O)cc3s2)[C@@H](F)C1` (racemic) [Example 104, racemic mixture of 1-[(3R,4R)-3-fluoro-4-{[2-(2-hydroxy-4,6-dimethylphenyl)-2H-pyrazolo[3,4-d][1,3]thiazol-5-yl]amino}pyrrolidin-1-yl]ethan-1-one and 1-[(3S,4S)-3-fluoro-4-{[2-(2-hydroxy-4,6-dimethylphenyl)-2H-pyrazolo[3,4-d][1,3]thiazol-5-yl]amino}pyrrolidin-1-yl] ethan-1-one]: 440 nM and greater than 30 µM.
As to `CCC(=O)N1C[C@H](Nc2nc3nn(-c4c(C)cc(C)cc4O)cc3s2)[C@@H](F)C1` (racemic) [Example 105, racemic mixture of 1-[(3R,4R)-3-fluoro-4-{[2-(2-hydroxy-4,6-dimethylphenyl)-2H-pyrazolo[3,4-d][1,3]thiazol-5-yl]amino}pyrrolidin-1-yl]propan-1-one and 1-[(3S,4S)-3-fluoro-4-{[2-(2-hydroxy-4,6-dimethylphenyl)-2H-pyrazolo[3,4-d][1,3]thiazol-5-yl]amino}pyrrolidin-1-yl]propan-1-one], the IC50 at NLRP3 inflammasome was 310 nM; in the test with NF-κB pathway it was greater than 30 µM.
Regarding `Cc1cc(C)c(-n2cc3sc(N[C@H]4CN(C(=O)CC5CC5)C[C@@H]4F)nc3n2)c(O)c1` (racemic) [Example 106, racemic mixture of 2-cyclopropyl-1-[(3R,4R)-3-fluoro-4-{[2-(2-hydroxy-4,6-dimethylphenyl)-2H-pyrazolo[3,4-d][1,3]thiazol-5-yl]amino}pyrrolidin-1-yl]ethan-1-one and 2-cyclopropyl-1-[(3S,4S)-3-fluoro-4-{[2-(2-hydroxy-4,6-dimethylphenyl)-2H-pyrazolo[3,4-d][1,3]thiazol-5-yl]amino}pyrrolidin-1-yl]ethan-1-one], the results for the IC50 against NLRP3 inflammasome and in the test on NF-κB pathway were 310 nM and greater than 30 µM, respectively.
Turning to `CNC(=O)N1C[C@H](Nc2nc3nn(-c4c(C)cc(C)cc4O)cc3s2)[C@@H](F)C1` (racemic) [Example 119, racemic mixture of (3R,4R)-3-fluoro-4-{[2-(2-hydroxy-4,6-dimethylphenyl)-2H-pyrazolo[3,4-d][1,3]thiazol-5-yl]amino}-N-methylpyrrolidine-1-carboxamide and (3S,4S)-3-fluoro-4-{[2-(2-hydroxy-4,6-dimethylphenyl)-2H-pyrazolo[3,4-d][1,3]thiazol-5-yl]amino}-N-methylpyrrolidine-1-carboxamide], the figures for the IC50 on NLRP3 inflammasome and with NF-κB pathway were 370 nM and greater than 30 µM, respectively.
`Cc1cc(C)c(-n2cc3sc(N[C@H]4COC[C@@H]4F)nc3n2)c(O)c1` (racemic) [Example 121, racemic mixture of 2-(5-{[(3R,4S)-4-fluorooxolan-3-yl]amino}-2H-pyrazolo[3,4-d][1,3]thiazol-2-yl)-3,5-dimethylphenol and 2-(5-{[(3S,4R)-4-fluorooxolan-3-yl]amino}-2H-pyrazolo[3,4-d][1,3]thiazol-2-yl)-3,5-dimethylphenol]: the IC50 on NLRP3 inflammasome is 590 nM; in the test with NF-κB pathway, greater than 10 µM.
The like results for `Cc1cc(C)c(-n2cc3sc(N[C@H]4COC[C@H]4F)nc3n2)c(O)c1` (racemic) [Example 122, racemic mixture of 2-(5-{[(3R,4R)-4-fluorooxolan-3-yl]amino}-2H-pyrazolo[3,4-d][1,3]thiazol-2-yl)-3,5-dimethylphenol and 2-(5-{[(3S,4S)-4-fluorooxolan-3-yl]amino}-2H-pyrazolo[3,4-d][1,3]thiazol-2-yl)-3,5-dimethylphenol] were, in that order, 580 nM and greater than 30 µM.
The like results for `Cc1cc(C)c(-n2cc3sc(N[C@H]4CN(C(=O)C(C)(C)O)C[C@@H]4F)nc3n2)c(O)c1` (racemic) [Example 123, racemic mixture of 1-[(3R,4R)-3-fluoro-4-{[2-(2-hydroxy-4,6-dimethylphenyl)-2H-pyrazolo[3,4-d][1,3]thiazol-5-yl]amino}pyrrolidin-1-yl]-2-hydroxy-2-methylpropan-1-one and 1-[(3S,4S)-3-fluoro-4-{[2-(2-hydroxy-4,6-dimethylphenyl)-2H-pyrazolo[3,4-d][1,3]thiazol-5-yl]amino}pyrrolidin-1-yl]-2-hydroxy-2-methylpropan-1-one] were, in that order, 390 nM and greater than 30 µM.
As for `Cc1cc(C)c(-n2cc3sc(N[C@H]4CN(C(=O)C5(O)CC5)C[C@@H]4F)nc3n2)c(O)c1` (racemic) [Example 124, racemic mixture of [(3R,4R)-3-fluoro-4-{[2-(2-hydroxy-4,6-dimethylphenyl)-2H-pyrazolo[3,4-d][1,3]thiazol-5-yl]amino}pyrrolidin-1-yl](1-hydroxycyclopropyl) methanone and [(3S,4S)-3-fluoro-4-{[2-(2-hydroxy-4,6-dimethylphenyl)-2H-pyrazolo[3,4-d][1,3]thiazol-5-yl]amino}pyrrolidin-1-yl](1-hydroxycyclopropyl)methanone], the IC50 at NLRP3 inflammasome is 340 nM; in the test with NF-κB pathway it was greater than 30 µM.
The matching figures for `Cc1cc(C)c(-n2cc3sc(N[C@H]4CN(C(=O)C5(C#N)CC5)C[C@@H]4F)nc3n2)c(O)c1` (racemic) [Example 125, racemic mixture of 1-[(3R,4R)-3-fluoro-4-{[2-(2-hydroxy-4,6-dimethylphenyl)-2H-pyrazolo[3,4-d][1,3]thiazol-5-yl]amino}pyrrolidine-1-carbonyl]cyclopropane-1-carbonitrile and 1-[(3S,4S)-3-fluoro-4-{[2-(2-hydroxy-4,6-dimethylphenyl)-2H-pyrazolo[3,4-d][1,3]thiazol-5-yl]amino}pyrrolidine-1-carbonyl]cyclopropane-1-carbonitrile]: 460 nM and greater than 30 µM.
